Entries after “also recorded” stand apart in the source; their conditions may differ. Where two headings read alike, the source gives them in different places.
How the values were obtained:
[1] = tested on: WSU-DLCL2 cells; assay: Cell cycle progression and apoptosis (TUNEL), WSU-DLCL2; format: cell-based, human
[2] = molecular target: WHSC1L1 (Homo sapiens, UniProt Q9BZ95); assay: Histone methyltransferase inhibition, WHSC1L1; format: biochemical
[3] = tested on: SMARCB1 regulated genes in RD control cells; assay: Gene expression analysis (qPCR), RD cells; format: cell-based; details: 1 μM
Description: (§1) Gene expression was normalized to 18S (AB #Hs99999901_s1) and fold change was calculated using the ΔΔCt method. For the in vivo samples, the average Ct value+/−SD was determined for each dose group and fold change compared to vehicle dose group was calculated using the ΔΔCt method.

[4] = tested on: WSU-DLCL2 Human Lymphoma Cells; assay: Washout experiments, WSU-DLCL2 proliferation (LCC); format: cell-based
[5] = molecular target: SMYD3 (Homo sapiens, UniProt Q9H7B4); assay: Histone methyltransferase inhibition, SMYD3; format: biochemical; details: read-out: % Inhibition at 1 μM Compound A, mean and SD of duplicate experiments
[6] = molecular target: PRMT6 (Homo sapiens, UniProt Q96LA8); assay: Histone methyltransferase inhibition, PRMT6; format: biochemical; details: read-out: % Inhibition at 1 μM Compound A, mean and SD of duplicate experiments
[7] = molecular target: WHSC1 (Homo sapiens, UniProt O96028); assay: Histone methyltransferase inhibition, WHSC1; format: biochemical
[8] = molecular target: DOT1L (Homo sapiens, UniProt Q8TEK3); assay: Histone methyltransferase inhibition, DOT1L; format: biochemical
[9] = tested on: SMARCB1 regulated genes in G401 cells; assay: Gene expression analysis (qPCR), G401 cells; format: cell-based; details: 1 μM, up to 7 days, time-dependent
Description: as §1

[10] = molecular target: SETD7 (Homo sapiens, UniProt Q8WTS6); assay: Histone methyltransferase inhibition, SETD7; format: biochemical; details: read-out: % Inhibition at 1 μM Compound A, mean and SD of duplicate experiments
[11] = molecular target: PRMT3 (Homo sapiens, UniProt O60678); assay: Histone methyltransferase inhibition, PRMT3; format: biochemical; details: read-out: % Inhibition at 1 μM Compound A, mean and SD of duplicate experiments
[12] = Oral administration to rodents (bioavailability); format: in vivo; details: administered to rodents
[13] = molecular target: PRMT5/MEP50 (Homo sapiens, UniProt O14744); assay: Histone methyltransferase inhibition, PRMT5/MEP50; format: biochemical
[14] = molecular target: EHMT1 (Homo sapiens, UniProt Q9H9B1); assay: Histone methyltransferase inhibition, EHMT1; format: biochemical
[15] = molecular target: EHMT2 (Homo sapiens, UniProt Q96KQ7); assay: Histone methyltransferase inhibition, EHMT2; format: biochemical
[16] = molecular target: PRMT1 (Homo sapiens, UniProt Q99873); assay: Histone methyltransferase inhibition, PRMT1; format: biochemical
[17] = molecular target: CARM1 (Homo sapiens, UniProt Q86X55); assay: Histone methyltransferase inhibition, CARM1; format: biochemical
[18] = tested on: RD SMARCB1 wild-type cells; assay: Cell cycle analysis (flow cytometry) and TUNEL assay, RD; format: cell-based; details: 1 μM, up to 14 days
Description: (§2) Cell cycle analysis and TUNEL assay were performed using a Guava® flow cytometer, following the manufacturer's protocol.

[19] = tested on: OCI-LY19 cells; details: OCI-LY19 (EZH2 wild type for residue Y641)
[20] = tested on: WSU-DLCL2 cells; details: with mouse plasma protein binding considered
[21] = tested on: H3K27Me3 in G401 cells; details: 4 days, acid-extracted histones, immunoblot
Description: (§3) A204, G401, and G402 cells were cultured in McCoys 5a+10% FBS.
(§4) Cells were pelleted, washed with ice cold PBS, resuspended in ice cold RIPA buffer, and incubated on ice for 5 minutes. Lysates were sonicated 3× for 10 sec at 50% power, then incubated on ice for 10 minutes. Lysates were then centrifuged at max speed for 15 minutes at 4 degrees in a table top centrifuge. Clarified lysates were aliquoted to a fresh tube, and protein concentrations for WCL were determined by BCA assay (Pierce).

[22] = tested on: H3K27Me3 in RD cells; details: 4 days, acid-extracted histones, immunoblot
Description: as §3, §4

[23] = tested on: G401 cells; details: pretreated 7 days, replated on day 0
Description: SJCRH30 cells were cultured in RPMI+10% FBS. A204, G401, and G402 cells were cultured in McCoys 5a+10% FBS. KYM-1 cells were cultured in DMEM/Ham's F12+10% FBS.
Plates were read on Day 0, Day 4, and Day 7 using CellTiter-Glo® (Promega), with compound/media being replenished on Day 4. On Day 7, the 6-well plates were trypsinized, centrifuged, and resuspended in fresh media for counting by Vi-Cell. Cells from each treatment were replated at the original density in 96-well plates in triplicate. Cells were allowed to adhere to the plate overnight, and cells were treated as on Day 0. […] Averages of triplicates were used to plot proliferation over the timecourse, and calculate IC50 values.

[24] = tested on: G402 SMARCB1-deleted cells; assay: Cell morphology, G402 cells; format: cell-based; details: 1 μM, 14 days
[25] = tested on: G401 SMARCB1-deleted cells; assay: Cell cycle analysis (flow cytometry) and TUNEL assay, G401; format: cell-based; details: 1 μM, up to 14 days
Description: as §2

[26] = tested on: Pfeiffer cells; details: Pfeiffer (EZH2 A677G); 11-day proliferation
[27] = molecular target: PRMT8 (Homo sapiens, UniProt Q9NR22); assay: Histone methyltransferase inhibition, PRMT8; format: biochemical
[28] = molecular target: SMYD2 (Homo sapiens, UniProt Q9NRG4); assay: Histone methyltransferase inhibition, SMYD2; format: biochemical
[29] = tested on: KARPAS-422 xenografts; assay: KARPAS-422 xenograft in mice; format: in vivo, nude mice; details: for antitumor effect, intermittent dosing schedules: 7-day on/7-day off and 21 day on/7 day off
[30] = tested on: subcutaneous G401 xenografts
Description: ELISA: Histones were isolated from tumors as previously described (Daigle et al) and were prepared in equivalent concentrations (0.5 ng/ul for H3 and 4 ng/ul for H3K27Me3) in coating buffer (PBS with 0.05% BSA). […] The plates were sealed and incubated overnight at 4° C. The following day, plates were washed 3 times with 300 μL/well PBST (PBS with 0.05% Tween 20; 10×PBST, KPL #51-14-02) on a Bio Tek plate washer. Plates were blocked with 300 μL/well of diluent (PBS+2% BSA+0.05% Tween 20), incubated at room temperature for 2 hours, and washed 3 times with PBST. All antibodies were diluted in diluent. […] Plates were incubated for 90 minutes at room temperature and washed 3 times with PBST. […] Plates were washed 4 times with PBST. For detection, 100 μL/well of TMB substrate (BioFx Laboratories, #TMBS) was added and plates incubated in the dark at room temperature for 5 minutes. Reaction was stopped with 100 μL/well 1N H2SO4. Absorbance at 450 nm was read on SpectraMax M5 Microplate reader.
Xenograft study: All the procedures related to animal handling, care and the treatment in this study were performed according to the guidelines approved by the Institutional Animal Care and Use Committee (IACUC) of Shanghai Chemparner following the guidance of the Association for Assessment and Accreditation of Laboratory Animal Care (AAALAC). […] Animal body weights were measured every day during the first week, then twice weekly for the remainder of the study. Tumor size was measured twice weekly in two dimensions using a caliper, and the volume was expressed in mm^3. […] The remaining mice continued dosing for one more week, and from day 29, treatment was stopped and the mice were enrolled in a tumor growth delay study. Mice were observed as individuals until they reached the tumor weight endpoint (2000 mm^3) or until day 60 (whichever came first).

[31] = tested on: G401 SNF mutant cell line; assay: Soft agar growth, G401; format: cell-based; details: after 7 days
[32] = tested on: LNCAP prostate cancer cells; assay: Cell growth inhibition in vitro, LNCAP; format: cell-based
[33] = tested on: ATRX mutant SCLC line NCI-H841; assay: Response and morphology of ATRX mutant SCLC line NCI-H841 with Compound E; format: cell-based
[34] = tested on: ATRX mutant SCLC line NCI-H446; assay: Response of ATRX mutant SCLC lines to Compound E, NCI-H446; format: cell-based
[35] = tested on: SNF5 mutant cell line A204; assay: Response of cell lines to Compound E (FIG. 2), A204; format: cell-based
[36] = tested on: SNF5 mutant cell line G402; assay: Response of cell lines to Compound E (FIG. 2), G402; format: cell-based
[37] = tested on: SNF5 mutant cell line G401; assay: Response of cell lines to Compound E (FIG. 2), G401; format: cell-based
[38] = tested on: ATRX mutant SCLC line SW1271; assay: Response of ATRX mutant SCLC lines to Compound E, SW1271; format: cell-based
[39] = read-out: % Inhibition at 1 μM Compound A, mean and SD of duplicate experiments
[40] = 4-day Compound A, 11-day Washout
[41] = 7-day Compound A, 7-day Washout

WHSC1L1, sequence (Q9BZ95 whole entry, species assumed): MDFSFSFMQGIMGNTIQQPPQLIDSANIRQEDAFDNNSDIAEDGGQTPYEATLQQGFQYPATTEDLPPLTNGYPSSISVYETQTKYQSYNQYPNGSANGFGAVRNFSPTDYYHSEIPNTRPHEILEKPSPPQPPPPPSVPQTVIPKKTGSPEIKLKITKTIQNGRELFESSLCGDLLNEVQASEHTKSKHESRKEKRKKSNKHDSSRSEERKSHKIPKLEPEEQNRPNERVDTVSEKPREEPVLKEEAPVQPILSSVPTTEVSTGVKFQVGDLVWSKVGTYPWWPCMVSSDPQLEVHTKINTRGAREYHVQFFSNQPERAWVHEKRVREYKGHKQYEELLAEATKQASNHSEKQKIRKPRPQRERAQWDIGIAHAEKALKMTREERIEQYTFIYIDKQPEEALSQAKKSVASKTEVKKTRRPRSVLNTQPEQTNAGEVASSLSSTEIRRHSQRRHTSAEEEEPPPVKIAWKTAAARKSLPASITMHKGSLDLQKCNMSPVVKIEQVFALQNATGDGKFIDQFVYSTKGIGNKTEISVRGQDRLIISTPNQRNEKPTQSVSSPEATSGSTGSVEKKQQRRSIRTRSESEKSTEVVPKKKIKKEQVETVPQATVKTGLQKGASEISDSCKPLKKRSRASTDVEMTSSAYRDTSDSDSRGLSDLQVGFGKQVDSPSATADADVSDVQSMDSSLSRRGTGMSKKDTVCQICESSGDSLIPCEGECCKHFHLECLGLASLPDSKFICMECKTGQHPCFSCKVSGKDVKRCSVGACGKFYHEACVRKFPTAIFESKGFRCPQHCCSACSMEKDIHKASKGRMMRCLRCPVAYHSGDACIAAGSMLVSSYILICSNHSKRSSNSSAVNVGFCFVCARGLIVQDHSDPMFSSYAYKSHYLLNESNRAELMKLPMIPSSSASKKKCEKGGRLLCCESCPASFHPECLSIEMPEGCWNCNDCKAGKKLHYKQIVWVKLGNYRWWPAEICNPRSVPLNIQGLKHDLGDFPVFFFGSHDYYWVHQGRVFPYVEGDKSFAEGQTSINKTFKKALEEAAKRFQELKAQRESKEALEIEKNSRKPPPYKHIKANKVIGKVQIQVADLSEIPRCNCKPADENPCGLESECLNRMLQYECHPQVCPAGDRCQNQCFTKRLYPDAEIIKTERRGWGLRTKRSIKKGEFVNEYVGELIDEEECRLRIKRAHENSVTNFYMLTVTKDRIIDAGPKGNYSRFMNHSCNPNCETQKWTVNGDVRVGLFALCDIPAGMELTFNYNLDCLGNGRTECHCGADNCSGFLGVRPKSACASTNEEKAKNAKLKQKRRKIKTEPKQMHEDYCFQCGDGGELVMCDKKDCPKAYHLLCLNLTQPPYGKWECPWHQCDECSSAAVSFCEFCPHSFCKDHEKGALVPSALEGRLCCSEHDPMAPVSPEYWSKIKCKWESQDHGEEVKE
PRMT1, sequence (Q99873 whole entry, species assumed): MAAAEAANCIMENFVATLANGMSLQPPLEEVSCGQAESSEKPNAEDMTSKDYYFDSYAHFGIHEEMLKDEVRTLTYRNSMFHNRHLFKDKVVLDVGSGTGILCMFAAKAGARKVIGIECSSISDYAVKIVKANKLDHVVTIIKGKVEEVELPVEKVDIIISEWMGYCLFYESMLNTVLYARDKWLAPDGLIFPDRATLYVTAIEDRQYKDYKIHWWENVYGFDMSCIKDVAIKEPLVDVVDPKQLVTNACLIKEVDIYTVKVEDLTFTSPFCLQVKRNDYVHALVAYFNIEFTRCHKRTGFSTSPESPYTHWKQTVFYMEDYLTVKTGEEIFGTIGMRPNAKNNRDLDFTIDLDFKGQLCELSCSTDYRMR
CARM1, sequence (Q86X55 whole entry, species assumed): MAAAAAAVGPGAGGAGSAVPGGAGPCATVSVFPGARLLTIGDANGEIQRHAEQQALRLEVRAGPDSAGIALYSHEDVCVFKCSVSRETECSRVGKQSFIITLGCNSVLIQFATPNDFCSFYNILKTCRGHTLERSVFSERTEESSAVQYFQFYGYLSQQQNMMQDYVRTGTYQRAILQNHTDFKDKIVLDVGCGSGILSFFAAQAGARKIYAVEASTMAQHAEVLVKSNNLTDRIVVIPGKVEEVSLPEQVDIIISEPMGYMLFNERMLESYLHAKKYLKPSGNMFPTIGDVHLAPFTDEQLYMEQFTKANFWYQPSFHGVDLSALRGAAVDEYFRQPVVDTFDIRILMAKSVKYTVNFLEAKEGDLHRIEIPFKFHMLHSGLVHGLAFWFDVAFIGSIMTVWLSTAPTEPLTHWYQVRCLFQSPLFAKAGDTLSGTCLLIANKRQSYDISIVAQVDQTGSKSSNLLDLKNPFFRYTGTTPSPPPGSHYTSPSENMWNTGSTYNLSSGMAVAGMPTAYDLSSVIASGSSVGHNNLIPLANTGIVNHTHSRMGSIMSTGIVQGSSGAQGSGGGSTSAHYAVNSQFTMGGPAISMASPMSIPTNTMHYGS
DOT1L, sequence (Q8TEK3 whole entry, species assumed): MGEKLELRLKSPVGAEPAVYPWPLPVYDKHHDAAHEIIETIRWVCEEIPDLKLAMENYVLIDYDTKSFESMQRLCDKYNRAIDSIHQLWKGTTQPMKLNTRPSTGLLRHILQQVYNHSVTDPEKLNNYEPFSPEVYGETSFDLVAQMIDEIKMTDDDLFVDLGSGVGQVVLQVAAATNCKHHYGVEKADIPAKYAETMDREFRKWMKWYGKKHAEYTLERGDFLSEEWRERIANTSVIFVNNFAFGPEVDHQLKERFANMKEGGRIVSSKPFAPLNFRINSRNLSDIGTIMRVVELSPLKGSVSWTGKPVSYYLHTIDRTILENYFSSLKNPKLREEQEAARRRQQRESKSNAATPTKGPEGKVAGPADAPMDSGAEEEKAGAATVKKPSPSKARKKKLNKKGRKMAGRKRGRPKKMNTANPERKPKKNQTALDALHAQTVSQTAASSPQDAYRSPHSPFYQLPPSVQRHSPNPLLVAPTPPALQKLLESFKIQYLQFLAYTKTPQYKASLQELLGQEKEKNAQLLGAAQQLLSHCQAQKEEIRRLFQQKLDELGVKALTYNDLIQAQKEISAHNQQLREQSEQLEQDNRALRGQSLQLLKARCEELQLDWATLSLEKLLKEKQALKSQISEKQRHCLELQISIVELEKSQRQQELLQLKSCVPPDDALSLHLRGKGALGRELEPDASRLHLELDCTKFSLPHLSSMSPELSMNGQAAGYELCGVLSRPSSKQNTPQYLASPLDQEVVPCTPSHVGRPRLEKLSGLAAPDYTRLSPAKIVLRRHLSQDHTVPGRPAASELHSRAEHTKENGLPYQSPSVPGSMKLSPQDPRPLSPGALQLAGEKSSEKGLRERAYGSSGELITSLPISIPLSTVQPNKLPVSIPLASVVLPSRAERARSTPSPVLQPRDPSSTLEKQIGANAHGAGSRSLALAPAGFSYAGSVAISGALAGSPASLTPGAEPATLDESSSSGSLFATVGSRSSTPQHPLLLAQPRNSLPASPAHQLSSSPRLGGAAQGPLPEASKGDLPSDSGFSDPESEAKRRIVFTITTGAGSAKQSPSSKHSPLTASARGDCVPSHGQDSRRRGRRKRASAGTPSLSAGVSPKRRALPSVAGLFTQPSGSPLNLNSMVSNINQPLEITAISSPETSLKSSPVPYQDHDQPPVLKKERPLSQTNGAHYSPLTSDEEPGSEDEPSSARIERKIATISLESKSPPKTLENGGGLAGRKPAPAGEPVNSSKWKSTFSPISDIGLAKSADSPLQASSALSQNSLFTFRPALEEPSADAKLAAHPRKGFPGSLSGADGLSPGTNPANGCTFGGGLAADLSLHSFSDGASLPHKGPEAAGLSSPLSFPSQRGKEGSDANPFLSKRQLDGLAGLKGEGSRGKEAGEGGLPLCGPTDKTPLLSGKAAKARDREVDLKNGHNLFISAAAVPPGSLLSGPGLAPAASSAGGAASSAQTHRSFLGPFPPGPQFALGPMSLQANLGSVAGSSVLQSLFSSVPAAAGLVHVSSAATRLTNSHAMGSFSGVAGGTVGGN
PRMT5/MEP50, sequence (O14744 whole entry, species assumed): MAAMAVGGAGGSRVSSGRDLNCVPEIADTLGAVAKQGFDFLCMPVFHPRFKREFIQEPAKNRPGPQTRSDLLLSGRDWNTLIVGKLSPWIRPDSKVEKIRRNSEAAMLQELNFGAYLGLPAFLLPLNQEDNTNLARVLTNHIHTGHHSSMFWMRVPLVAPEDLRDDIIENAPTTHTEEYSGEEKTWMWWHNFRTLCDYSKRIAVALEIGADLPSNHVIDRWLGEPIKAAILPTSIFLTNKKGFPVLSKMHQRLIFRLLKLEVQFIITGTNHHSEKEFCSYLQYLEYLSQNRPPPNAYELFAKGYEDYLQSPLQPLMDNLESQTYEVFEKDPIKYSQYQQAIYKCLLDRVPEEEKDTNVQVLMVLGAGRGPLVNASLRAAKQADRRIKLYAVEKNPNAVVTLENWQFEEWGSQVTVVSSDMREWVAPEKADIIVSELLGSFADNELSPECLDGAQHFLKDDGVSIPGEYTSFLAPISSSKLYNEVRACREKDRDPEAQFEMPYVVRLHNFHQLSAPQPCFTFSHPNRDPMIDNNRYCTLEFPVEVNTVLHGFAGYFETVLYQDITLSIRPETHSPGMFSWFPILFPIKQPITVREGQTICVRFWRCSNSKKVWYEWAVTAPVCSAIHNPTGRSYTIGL
PRMT5/MEP50, sequence (Q9BQA1 whole entry partner, species assumed): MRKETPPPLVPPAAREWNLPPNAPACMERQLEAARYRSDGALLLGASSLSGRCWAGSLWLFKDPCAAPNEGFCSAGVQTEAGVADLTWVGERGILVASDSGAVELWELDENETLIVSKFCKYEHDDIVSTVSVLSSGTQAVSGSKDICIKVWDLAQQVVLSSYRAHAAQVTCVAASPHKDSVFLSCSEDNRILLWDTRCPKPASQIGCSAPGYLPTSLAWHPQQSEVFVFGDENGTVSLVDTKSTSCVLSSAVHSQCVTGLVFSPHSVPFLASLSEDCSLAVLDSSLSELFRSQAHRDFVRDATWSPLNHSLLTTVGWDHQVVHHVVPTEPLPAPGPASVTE

## CCN(c1cc(-c2ccc(CN3CCOCC3)cc2)cc(C(=O)NCc2c(C)cc(C)[nH]c2=O)c1C)C1CCOCC1 [Compound A, N-((4,6-dimethyl-2-oxo-1,2-dihydropyridin-3-yl)methyl)-5-(ethyl (tetrahydro-2H-pyran-4-yl)amino)-4-methyl-4′-(morpholinomethyl)-[1,1′-biphenyl]-3-carboxamide]
[1]; 1 μM, 7 days
  sub-G1 fraction: no apparent increase in the sub-G1 fraction
[1]; 1 μM, apparent after 2 days, maximum after 4 days
  cell cycle progression: increase in the percentage of cells in G1 phase, and a decrease in the percentage of cells in S phase and G2/M phase
[1]; day 14 compared to vehicle
  fraction of apoptotic cells (TUNEL assay): significantly increased
[2]; one experiment
  IC50: > 100 µM
[2]; [39]
  inhibition at 1 µM: 9 ± 8%
[3]
  expression of the SMARCB1 regulated genes: minimal effect on expression
[4]; [40]
  Day 11 LCC: 0.36 µM
  Day 14 LCC: 0.42 µM
[4]; [41]
  Day 11 LCC: 0.19 µM
  Day 14 LCC: 0.075 µM
[4]; No Washout
  Day 11 LCC: 0.17 µM
  Day 14 LCC: 0.11 µM
[5]
  inhibition at 1 µM: 0%
[6]
  inhibition at 1 µM: 3 ± 3%
[7]; one experiment
  IC50: > 100 µM
[7]; [39]
  inhibition at 1 µM: 8 ± 3%
[8]; one experiment
  IC50: > 50 µM
[8]; [39]
  inhibition at 1 µM: 2 ± 8%
[9]
  expression of CDKN1A, CDKN2A and BIN1: up-regulated cell cycle inhibitors CDKN1A and CDKN2A and tumor suppressor BIN1
  expression of neuronal differentiation genes CD133, DOCK4, PTPRK: strongly induced expression of CD133, DOCK4 and PTPRK
[10]
  inhibition at 1 µM: 4 ± 3%
[11]
  inhibition at 1 µM: 2 ± 2%
[12]
  oral bioavailability: excellent
[13]; one experiment
  IC50: > 50 µM
[13]; [39]
  inhibition at 1 µM: 2 ± 6%
[14]; one experiment
  IC50: > 50 µM
[14]; [39]
  inhibition at 1 µM: 6 ± 6%
[15]; one experiment
  IC50: > 50 µM
[15]; [39]
  inhibition at 1 µM: 7 ± 3%
[16]; one experiment
  IC50: > 50 µM
[16]; [39]
  inhibition at 1 µM: 5 ± 4%
[17]; mean of duplicate experiments
  IC50: > 50 µM
[17]; read-out: % Inhibition at 1 μM Compound A, mean and standard deviation of duplicate experiments
  inhibition at 1 µM: 5 ± 3%
[18]
  cell cycle and apoptosis compared to DMSO control: no changes in cell cycle or apoptosis
[19]
  growth over 11 days: not significantly affected
[20]
  LCC for WSU-DLCL2 cells as plasma level: 1652 ng/mL
[21]
  specificity for inhibition of cellular histone methylation: selective inhibition of cellular H3K27 methylation
[22]
  specificity for inhibition of cellular histone methylation: selective inhibition of cellular H3K27 methylation
[23]
  sensitivity in vitro (cell viability, CellTiter-Glo): sensitive
[24]
  cell morphology: neuron-like morphology
[25]
  cell cycle (G1 arrest): increase in the percentage of cells in G1 phase, and a concomitant decrease in S phase and G2/M phase after 7 days; also recorded: G1 arrest was observed as of day 7
  sub-G1 fraction and apoptotic cells (TUNEL assay): increased in a time dependent manner; also recorded: apoptosis was induced as of day 11
[26]
  increase in sensitivity over the Y641 mutant cell lines, measured by IC50 value: 20 fold
  increase in sensitivity over the Y641 mutant cell lines, measured by LCC: 300 fold
[27]; one experiment
  IC50: > 50 µM
[27]; [39]
  inhibition at 1 µM: 7 ± 3%
[28]; one experiment
  IC50: > 50 µM
[28]; [39]
  inhibition at 1 µM: 1 ± 2%
[29]; 90 mg/kg BID
  antitumor effect, intermittent dosing schedules: tumor growth inhibition
[29]; 361 mg/kg BID
  antitumor effect, intermittent dosing schedules: complete regressions
[29]; 7-day study, nude mice, BID and QD schedules
  tumor H3K27Me3 levels: dose-dependent reduction of tumor H3K27Me3 levels
[29]; higher doses, up to 90 days after cessation of dosing
  tumor re-growth after cessation of dosing: no re-growth
[30]; 125 mg/kg
  tumor growth after the dosing period compared to vehicle: significant tumor growth delay
[30]; 133 mg/kg
  tumor growth after dosing stop compared to vehicle: significant tumor growth delay
[30]; 250 or 500 mg/kg BID, 32 days after dose cessation
  tumor re-growth: Re-growth was not observed
[30]; 250 or 500 mg/kg twice daily (BID) for 21 to 28 days
  antitumor effect: practically eliminated
[30]; 266 or 532 mg/kg BID for 28 days
  antitumor effect: eliminated
[30]; 266 or 532 mg/kg BID, study end, 32 days after dosing stop
  tumor re-growth: re-growth was not observed
[30]; 5 min before or 3 h after dosing on day 21, LC-MS/MS
  plasma levels (systemic exposure): dose-dependent increase in systemic exposure
[30]; treated 21 days, qPCR
  gene expression in G401 xenograft tumors: dose-dependent changes in the expression of CD133, PTPRK, DOCK4 and GLI1
[30]; tumors harvested on day 21, maximum effect at 250 mg/kg
  H3K27me3 in tumors (ELISA): strong inhibition of H3K27me3

## CCN(c1cc(-c2ccc(CN3CCOCC3)cc2)cc(C(=O)NCc2c(C)cc(C)[nH]c2=O)c1C)[C@H]1CC[C@H](N(C)C)CC1 [Compound E, N-((4,6-dimethyl-2-oxo-1,2-dihydropyridin-3-yl)methyl)-5-(((1r,4r)-4-(dimethylamino)cyclohexyl)(ethyl)amino)-4-methyl-4′-(morpholinomethyl)-[1,1′-biphenyl]-3-carboxamide]
[31]
  response in soft agar compared to wild type cells RD: responding
[32]
  cell growth inhibition: dose-dependent cell growth inhibition
[33]
  response: responding
[33]; 4.1E-02 uM or 3.3 uM
  cell morphology: changes morphology
[34]
  response: responding
[35]
  response compared to wild type cell lines RD and SJCRH30: selectively respond
[36]
  response compared to wild type cell lines RD and SJCRH30: selectively respond
[37]
  response compared to wild type cell lines RD and SJCRH30: selectively respond
[38]
  response: responding
